Results as given in the supplement of paper PMC5908809.

Tests used:
[1] = system: normal NK cells expanded with K562-aAPC; test: percent inhibition of viability; higher = more inhibition; details: 72 h, IL-2 2.5 ng/mL
Procedure: (§1)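 Drug sensitivity and resistance testing on K562-aAPC-expanded normal NK cells: 5 concentrations (10-fold steps over a 10,000-fold range), 72 h at 37 °C, viability by CellTiter-Glo normalised to DMSO and benzethonium chloride controls; DSS from the fitted curve.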

DERL-7 (IL-2 2.5 ng/mL) [2] = test: as above; details: 72 h
IMC-1 (IL-2 20 ng/mL) [3] = test: as above; details: 72 h
KAI3 (IL-2 2.5 ng/mL) [4] = test: as above; details: 72 h
KHYG-1 (IL-2 2.5 ng/mL) [5] = test: as above; details: 72 h
NK-92 (IL-2 2.5 ng/mL) [6] = test: as above; details: 72 h
NK-YS (IL-2 2.5 ng/mL) [7] = test: as above; details: 72 h
NKL (IL-2 2.5 ng/mL) [8] = test: as above; details: 72 h
SNK-6 (IL-2 2.5 ng/mL) [9] = test: as above; details: 72 h
YT (IL-2 2.5 ng/mL) [10] = test: as above; details: 72 h
[11] = system: normal primary NK cells, pool 1 (3 donors) (IL-2 2.5 ng/mL); test: as above; details: 72 h
[12] = system: normal primary NK cells, pool 1 (3 donors), resting (IL-2 0 ng/mL); test: as above; details: 72 h
[13] = system: normal primary NK cells, pool 2 (3 donors) (IL-2 2.5 ng/mL); test: as above; details: 72 h
[14] = system: normal primary NK cells, pool 3 (3 donors) (IL-2 2.5 ng/mL); test: as above; details: 72 h
[15] = system: normal NK cells expanded with K562-aAPC; test: drug sensitivity score (DSS) (DSS units); higher = more sensitive; extreme values may be limits of the assay; details: 72 h; IL-2 2.5 ng/mL
Procedure: as §1

DERL-7 (IL-2 2.5 ng/mL) [16] = test: as above; details: 72 h
IMC-1 (IL-2 20 ng/mL) [17] = test: as above; details: 72 h
KAI3 (IL-2 2.5 ng/mL) [18] = test: as above; details: 72 h
KHYG-1 (IL-2 2.5 ng/mL) [19] = test: as above; details: 72 h
NK-92 (IL-2 2.5 ng/mL) [20] = test: as above; details: 72 h
NK-YS (IL-2 2.5 ng/mL) [21] = test: as above; details: 72 h
NKL (IL-2 2.5 ng/mL) [22] = test: as above; details: 72 h
SNK-6 (IL-2 2.5 ng/mL) [23] = test: as above; details: 72 h
YT (IL-2 2.5 ng/mL) [24] = test: as above; details: 72 h
[25] = system: normal primary NK cells, pool 1 (3 donors) (IL-2 2.5 ng/mL); test: as above; details: 72 h
[26] = system: normal primary NK cells, pool 1 (3 donors), resting (IL-2 0 ng/mL); test: as above; details: 72 h
[27] = system: normal primary NK cells, pool 2 (3 donors) (IL-2 2.5 ng/mL); test: as above; details: 72 h
[28] = system: normal primary NK cells, pool 3 (3 donors) (IL-2 2.5 ng/mL); test: as above; details: 72 h

CNC(=O)c1cc(Oc2ccc(NC(=O)Nc3ccc(Cl)c(C(F)(F)F)c3)c(F)c2)ccn1 [Regorafenib] (max concentration tested 10000 nM)
percent inhibition of viability [%]
Details | 1 nM | 10 nM | 100 nM | 1000 nM | 10000 nM
DERL-7 (IL-2 2.5 ng/mL) [2] | 2.39 | 2.44 | -0.06 | 27.7 | 70.5
IMC-1 (IL-2 20 ng/mL) [3] | -4.09 | -5.72 | 3.85 | 6.77 | 39.6
KAI3 (IL-2 2.5 ng/mL) [4] | -0.04 | -3.7 | -6.12 | -2.83 | 85.1
KHYG-1 (IL-2 2.5 ng/mL) [5] | -1.86 | -1.02 | 1.17 | 11.2 | 87.3
NK-92 (IL-2 2.5 ng/mL) [6] | 0.49 | 12.1 | 12 | 37.9 | 85.7
NK-YS (IL-2 2.5 ng/mL) [7] | -1 | -1.21 | 3.83 | 15.4 | 67
NKL (IL-2 2.5 ng/mL) [8] | -7.68 | -18.9 | -10.6 | 17.4 | 70.8
SNK-6 (IL-2 2.5 ng/mL) [9] | 9.61 | 17.5 | 36.1 | 38.7 | 63.7
YT (IL-2 2.5 ng/mL) [10] | 2 | 0.08 | 3.65 | 21.9 | 100
[1] | 3.1 | -1.28 | -0.64 | -2.22 | 19.1
[11] | -13.1 | 1.52 | -11 | 1.66 | 79.7
[12] | 6.64 | 8.24 | -7.13 | 12.5 | 79.3
[13] | -10.1 | -16.9 | -7.59 | 12.1 | 61
[14] | -11.7 | -13.3 | -6.26 | 6.56 | 48.1

Details | drug sensitivity score
DERL-7 (IL-2 2.5 ng/mL) [16] | 7.66
IMC-1 (IL-2 20 ng/mL) [17] | 3.09
KAI3 (IL-2 2.5 ng/mL) [18] | 4.49
KHYG-1 (IL-2 2.5 ng/mL) [19] | 6.71
NK-92 (IL-2 2.5 ng/mL) [20] | 9.31
NK-YS (IL-2 2.5 ng/mL) [21] | 6.12
NKL (IL-2 2.5 ng/mL) [22] | 6.61
SNK-6 (IL-2 2.5 ng/mL) [23] | 13.9
YT (IL-2 2.5 ng/mL) [24] | 8.99
[15] | 0.41
[25] | 4.63
[26] | 6.48
[27] | 5.3
[28] | 3.62
